{"source": "patent US20090312433A1", "about": "“TREATMENT OF VR1-ANTAGONIST-INDUCED INCREASE IN BODY TEMPERATURE WITH AN ANTIPYRETIC AGENT” (Amgen Inc., priority 2005, published 2009)", "key": {"rats": {"system": "rats", "test": "Body temperature in rats after TRPV1 antagonist followed by acetaminophen", "type": "in vivo", "method": "In this study rats were first treated with vehicle (Oraplus/5% Tween 80) or a TRPV1 antagonist (Compound A; 3 mg/kg, p.o.). Following a 120 min period, separate groups of rats were then administered vehicle (Oraplus/5% Tween 80) or acetaminophen (300 mg/kg, p.o.). Body temperature was then measured for an additional 120 min."}, "TRPV1 [1]": {"system": "TRPV1", "settings": "different species; cited from earlier work"}, "TRPV1 [2]": {"system": "TRPV1", "settings": "cited from earlier work"}}, "note": "“Also recorded” adds a separate entry of the source."}
{"compound": "CC(=O)Nc1ccc(O)cc1", "note": "[acetaminophen]", "values": [{"measurement": "body temperature after TRPV1 antagonist followed by acetaminophen", "setting": "rats; Compound A 3 mg/kg p.o., then after 120 min acetaminophen 300 mg/kg p.o. (Compound A+Acet group), measured for an additional 120 min", "value": "reversed; also recorded: decreased to levels observed in the control group"}, {"measurement": "body temperature, acetaminophen alone", "setting": "rats; vehicle, then after 120 min acetaminophen 300 mg/kg p.o. (Veh+Acet group)", "value": "decreased"}]}
{"compound": "C=C(C)[C@]12C[C@@H](C)[C@@]34O[C@](Cc5ccccc5)(O[C@@H]1[C@@H]3C=C(COC(=O)Cc1ccc(O)c(OC)c1)C[C@]1(O)C(=O)C(C)=C[C@@H]41)O2", "note": "[RTX, resiniferatoxin]", "values": [{"measurement": "hypothermia induced by TRPV1 agonists", "setting": "TRPV1 [1]", "value": "induce hypothermia"}]}
{"compound": "CC(=O)Nc1nc2c(Oc3cc(-c4ccc(C(F)(F)F)cc4NC(=O)OC(C)(C)C)ncn3)cccc2s1", "note": "[Compound A, {2-[6-(2-acetylamino-benzothiazol-4-yloxy)-pyrimidin-4-yl]-5-trifluoromethyl-phenyl}-carbamic acid tert-butyl ester]", "values": [{"measurement": "body temperature following treatment with TRPV1 antagonist", "setting": "rats; 3 mg/kg, p.o., 120 min period after dosing", "value": "significant increase in body temperature"}, {"measurement": "body temperature compared to the control group (Veh+Veh)", "setting": "rats; Compound A 3 mg/kg p.o. followed after 120 min by vehicle (Compound A+Veh group), measured for an additional 120 min", "value": "remained elevated"}]}
{"compound": "COc1cc(CNC(=O)CCCC/C=C/C(C)C)ccc1O", "note": "[capsaicin]", "values": [{"measurement": "hypothermia induced by TRPV1 agonists", "setting": "TRPV1 [1]", "value": "induce hypothermia"}, {"measurement": "hypothermia in mice lacking TRPV1", "setting": "TRPV1 [2]", "value": "did not induce hypothermia"}]}
